Data published in patent publication US20100137449A1, “SUBSTITUTED 1,3-CYCLOPENTADIONE MULTI-TARGET PROTEIN KINASE MODULATORS OF CANCER, ANGIOGENESIS AND THE INFLAMMATORY PATHWAYS ASSOCIATED THEREWITH” (METAPROTEOMICS, LLC, priority 2007, published 2010).

How the values were obtained:
Test in all cases: KinaseProfiler Assay
Src(1-530)(h) = Src(1-530)(h) (Homo sapiens, UniProt P12931)
ALK(h) = ALK(h) (Homo sapiens, UniProt Q9UM73)
ARK5(h) = biological target: T1, ARK5(h) (Homo sapiens, UniProt O60285)
T1 sequence (O60285 1-661): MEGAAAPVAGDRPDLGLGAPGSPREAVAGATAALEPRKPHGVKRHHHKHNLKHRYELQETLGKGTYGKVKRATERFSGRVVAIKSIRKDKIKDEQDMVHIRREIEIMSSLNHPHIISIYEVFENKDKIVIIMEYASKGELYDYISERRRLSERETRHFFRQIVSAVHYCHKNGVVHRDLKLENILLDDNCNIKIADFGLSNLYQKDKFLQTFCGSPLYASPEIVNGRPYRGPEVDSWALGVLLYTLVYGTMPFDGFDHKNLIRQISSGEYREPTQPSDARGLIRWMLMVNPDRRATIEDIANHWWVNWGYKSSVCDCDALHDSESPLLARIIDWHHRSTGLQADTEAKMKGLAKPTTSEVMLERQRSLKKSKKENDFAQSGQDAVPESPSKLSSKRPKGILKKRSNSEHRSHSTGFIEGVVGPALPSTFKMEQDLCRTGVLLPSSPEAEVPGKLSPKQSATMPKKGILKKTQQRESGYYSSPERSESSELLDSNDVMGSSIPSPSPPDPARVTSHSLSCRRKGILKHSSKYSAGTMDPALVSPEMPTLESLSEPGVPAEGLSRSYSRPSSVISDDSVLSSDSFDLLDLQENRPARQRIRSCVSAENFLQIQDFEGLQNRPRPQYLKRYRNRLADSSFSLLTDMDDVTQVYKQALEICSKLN

cKit(D816H)(h) = cKit(D816H)(h) (Homo sapiens, UniProt P10721, D816H)
Itk(h) = biological target: T2, Itk(h) (Homo sapiens, UniProt Q08881)
T2 sequence (Q08881 1-620): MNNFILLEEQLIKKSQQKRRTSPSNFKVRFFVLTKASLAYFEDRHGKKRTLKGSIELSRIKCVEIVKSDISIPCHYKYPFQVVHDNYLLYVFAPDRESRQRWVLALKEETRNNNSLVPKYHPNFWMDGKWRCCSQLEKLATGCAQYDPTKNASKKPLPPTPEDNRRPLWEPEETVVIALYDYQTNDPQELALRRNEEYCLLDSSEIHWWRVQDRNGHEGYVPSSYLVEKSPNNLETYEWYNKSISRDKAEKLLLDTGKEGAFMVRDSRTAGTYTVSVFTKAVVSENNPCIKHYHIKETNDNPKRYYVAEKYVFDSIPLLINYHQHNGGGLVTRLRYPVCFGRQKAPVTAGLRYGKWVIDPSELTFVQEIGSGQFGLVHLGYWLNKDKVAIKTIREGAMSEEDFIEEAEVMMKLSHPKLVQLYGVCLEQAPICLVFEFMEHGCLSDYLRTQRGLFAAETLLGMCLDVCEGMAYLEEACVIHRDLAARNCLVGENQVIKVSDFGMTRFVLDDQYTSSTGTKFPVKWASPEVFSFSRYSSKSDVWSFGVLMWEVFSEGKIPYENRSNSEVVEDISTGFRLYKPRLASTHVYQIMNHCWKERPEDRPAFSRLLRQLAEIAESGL

Rsk4(h) = Rsk4(h) (Homo sapiens, UniProt Q9UK32)
ACK1(h) = ACK1(h) (Homo sapiens, UniProt Q07912)
PKBβ(h) = PKBβ(h) (Homo sapiens, UniProt P31751)
DRAK1(h) = biological target: T3, DRAK1(h) (Homo sapiens, UniProt Q9UEE5)
T3 sequence (Q9UEE5 1-414): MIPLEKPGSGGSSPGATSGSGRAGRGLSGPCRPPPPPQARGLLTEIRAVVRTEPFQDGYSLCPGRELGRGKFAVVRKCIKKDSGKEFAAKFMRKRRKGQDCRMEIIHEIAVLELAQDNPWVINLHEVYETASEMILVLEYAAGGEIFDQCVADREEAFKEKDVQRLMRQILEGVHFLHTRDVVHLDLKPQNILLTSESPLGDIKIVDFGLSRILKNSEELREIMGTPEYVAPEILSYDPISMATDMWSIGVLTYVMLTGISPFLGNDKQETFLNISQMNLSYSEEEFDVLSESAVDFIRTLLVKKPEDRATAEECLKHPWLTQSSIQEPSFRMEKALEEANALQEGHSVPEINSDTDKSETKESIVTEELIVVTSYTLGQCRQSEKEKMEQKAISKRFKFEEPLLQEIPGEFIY

CDK5/p35(h) = CDK5/p35(h) (Homo sapiens, UniProt Q00535)
Sequence of CDK5/p35(h) (Q00535 whole entry): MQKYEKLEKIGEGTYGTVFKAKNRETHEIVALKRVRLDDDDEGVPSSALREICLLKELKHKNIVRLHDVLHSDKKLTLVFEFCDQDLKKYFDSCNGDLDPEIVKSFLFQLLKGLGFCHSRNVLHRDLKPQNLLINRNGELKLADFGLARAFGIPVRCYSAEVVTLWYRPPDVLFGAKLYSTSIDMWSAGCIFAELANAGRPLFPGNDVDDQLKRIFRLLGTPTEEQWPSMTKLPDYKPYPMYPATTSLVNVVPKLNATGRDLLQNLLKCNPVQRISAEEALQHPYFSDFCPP
Sequence of CDK5/p35(h) (Q15078 whole entry partner): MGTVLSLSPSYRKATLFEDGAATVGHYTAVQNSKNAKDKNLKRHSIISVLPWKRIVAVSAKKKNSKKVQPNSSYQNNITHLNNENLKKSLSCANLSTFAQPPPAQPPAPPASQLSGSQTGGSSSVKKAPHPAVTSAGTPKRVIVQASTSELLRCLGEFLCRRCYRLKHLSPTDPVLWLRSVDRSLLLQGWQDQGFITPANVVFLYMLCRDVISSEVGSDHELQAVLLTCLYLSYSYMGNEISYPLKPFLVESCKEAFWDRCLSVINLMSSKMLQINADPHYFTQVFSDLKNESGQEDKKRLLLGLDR

Sequence of PKBβ(h) (P31751 whole entry): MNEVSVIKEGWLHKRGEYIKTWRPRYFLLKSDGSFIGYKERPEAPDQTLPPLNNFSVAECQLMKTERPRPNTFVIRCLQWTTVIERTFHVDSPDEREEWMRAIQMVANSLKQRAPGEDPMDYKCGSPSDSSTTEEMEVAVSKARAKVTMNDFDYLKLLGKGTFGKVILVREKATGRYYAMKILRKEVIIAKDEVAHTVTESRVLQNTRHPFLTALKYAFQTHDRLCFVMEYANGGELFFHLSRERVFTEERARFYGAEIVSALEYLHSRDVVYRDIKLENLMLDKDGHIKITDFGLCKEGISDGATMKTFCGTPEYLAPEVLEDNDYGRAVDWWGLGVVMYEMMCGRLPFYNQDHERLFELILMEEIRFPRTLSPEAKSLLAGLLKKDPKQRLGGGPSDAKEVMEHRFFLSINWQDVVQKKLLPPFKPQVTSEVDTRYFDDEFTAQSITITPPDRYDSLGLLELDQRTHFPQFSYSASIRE
Sequence of Rsk4(h) (Q9UK32 whole entry): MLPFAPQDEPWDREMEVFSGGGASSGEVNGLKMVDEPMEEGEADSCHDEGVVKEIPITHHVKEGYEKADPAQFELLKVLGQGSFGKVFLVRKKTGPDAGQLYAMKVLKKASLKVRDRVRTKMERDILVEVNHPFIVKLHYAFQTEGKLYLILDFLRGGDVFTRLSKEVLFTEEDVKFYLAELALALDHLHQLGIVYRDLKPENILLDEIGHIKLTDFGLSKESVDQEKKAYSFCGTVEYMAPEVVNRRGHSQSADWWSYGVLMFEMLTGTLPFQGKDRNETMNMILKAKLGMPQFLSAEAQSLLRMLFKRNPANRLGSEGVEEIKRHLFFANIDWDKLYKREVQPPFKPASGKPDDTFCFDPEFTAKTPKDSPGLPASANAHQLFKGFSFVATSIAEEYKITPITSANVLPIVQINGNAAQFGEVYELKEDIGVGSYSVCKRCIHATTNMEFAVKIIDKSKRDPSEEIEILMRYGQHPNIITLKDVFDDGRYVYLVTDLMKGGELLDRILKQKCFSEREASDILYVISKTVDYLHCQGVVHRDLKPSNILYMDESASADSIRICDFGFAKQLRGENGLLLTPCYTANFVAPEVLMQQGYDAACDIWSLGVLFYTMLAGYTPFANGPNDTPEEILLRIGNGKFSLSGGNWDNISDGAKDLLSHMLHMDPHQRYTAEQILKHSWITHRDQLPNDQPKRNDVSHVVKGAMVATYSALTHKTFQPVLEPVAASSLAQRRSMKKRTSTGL
Sequence of cKit(D816H)(h) (P10721 26-976 D816H): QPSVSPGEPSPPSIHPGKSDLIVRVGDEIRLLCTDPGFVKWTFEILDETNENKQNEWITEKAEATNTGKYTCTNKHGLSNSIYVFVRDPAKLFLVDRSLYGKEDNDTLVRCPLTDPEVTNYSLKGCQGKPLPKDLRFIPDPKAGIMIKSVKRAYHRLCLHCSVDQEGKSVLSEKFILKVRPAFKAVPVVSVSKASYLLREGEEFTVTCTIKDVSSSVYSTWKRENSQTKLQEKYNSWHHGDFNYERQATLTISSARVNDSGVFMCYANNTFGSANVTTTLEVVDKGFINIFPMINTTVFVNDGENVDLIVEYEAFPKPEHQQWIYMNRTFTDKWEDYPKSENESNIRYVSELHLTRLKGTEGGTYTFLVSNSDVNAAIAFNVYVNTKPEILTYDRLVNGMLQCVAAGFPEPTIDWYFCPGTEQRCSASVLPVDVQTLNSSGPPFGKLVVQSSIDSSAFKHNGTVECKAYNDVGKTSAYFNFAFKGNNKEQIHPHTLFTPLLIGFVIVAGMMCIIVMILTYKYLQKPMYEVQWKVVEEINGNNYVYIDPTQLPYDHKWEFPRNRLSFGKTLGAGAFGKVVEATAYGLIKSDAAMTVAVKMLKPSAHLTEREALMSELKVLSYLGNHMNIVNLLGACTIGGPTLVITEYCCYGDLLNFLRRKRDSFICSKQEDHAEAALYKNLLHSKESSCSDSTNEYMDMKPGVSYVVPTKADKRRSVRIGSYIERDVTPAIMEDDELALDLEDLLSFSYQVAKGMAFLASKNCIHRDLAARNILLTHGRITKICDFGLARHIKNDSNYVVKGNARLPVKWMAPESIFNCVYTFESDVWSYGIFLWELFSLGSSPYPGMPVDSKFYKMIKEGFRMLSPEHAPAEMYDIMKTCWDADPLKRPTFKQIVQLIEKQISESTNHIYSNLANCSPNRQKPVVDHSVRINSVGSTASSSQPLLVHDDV
Sequence of Src(1-530)(h) (P12931 1-530): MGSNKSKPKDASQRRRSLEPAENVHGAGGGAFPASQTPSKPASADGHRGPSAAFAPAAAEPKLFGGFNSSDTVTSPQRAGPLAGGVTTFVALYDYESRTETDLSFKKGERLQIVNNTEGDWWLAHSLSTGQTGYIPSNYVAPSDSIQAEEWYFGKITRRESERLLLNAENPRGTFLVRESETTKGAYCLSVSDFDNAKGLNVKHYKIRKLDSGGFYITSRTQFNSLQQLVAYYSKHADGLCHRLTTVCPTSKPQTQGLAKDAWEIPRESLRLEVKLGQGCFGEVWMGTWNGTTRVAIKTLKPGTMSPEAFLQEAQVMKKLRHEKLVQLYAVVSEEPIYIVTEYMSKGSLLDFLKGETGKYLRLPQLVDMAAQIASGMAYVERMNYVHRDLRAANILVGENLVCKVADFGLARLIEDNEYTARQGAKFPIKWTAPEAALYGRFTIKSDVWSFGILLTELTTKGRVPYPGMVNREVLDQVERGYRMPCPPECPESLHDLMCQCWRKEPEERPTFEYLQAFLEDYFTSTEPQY
Sequence of ALK(h) (Q9UM73 19-1620): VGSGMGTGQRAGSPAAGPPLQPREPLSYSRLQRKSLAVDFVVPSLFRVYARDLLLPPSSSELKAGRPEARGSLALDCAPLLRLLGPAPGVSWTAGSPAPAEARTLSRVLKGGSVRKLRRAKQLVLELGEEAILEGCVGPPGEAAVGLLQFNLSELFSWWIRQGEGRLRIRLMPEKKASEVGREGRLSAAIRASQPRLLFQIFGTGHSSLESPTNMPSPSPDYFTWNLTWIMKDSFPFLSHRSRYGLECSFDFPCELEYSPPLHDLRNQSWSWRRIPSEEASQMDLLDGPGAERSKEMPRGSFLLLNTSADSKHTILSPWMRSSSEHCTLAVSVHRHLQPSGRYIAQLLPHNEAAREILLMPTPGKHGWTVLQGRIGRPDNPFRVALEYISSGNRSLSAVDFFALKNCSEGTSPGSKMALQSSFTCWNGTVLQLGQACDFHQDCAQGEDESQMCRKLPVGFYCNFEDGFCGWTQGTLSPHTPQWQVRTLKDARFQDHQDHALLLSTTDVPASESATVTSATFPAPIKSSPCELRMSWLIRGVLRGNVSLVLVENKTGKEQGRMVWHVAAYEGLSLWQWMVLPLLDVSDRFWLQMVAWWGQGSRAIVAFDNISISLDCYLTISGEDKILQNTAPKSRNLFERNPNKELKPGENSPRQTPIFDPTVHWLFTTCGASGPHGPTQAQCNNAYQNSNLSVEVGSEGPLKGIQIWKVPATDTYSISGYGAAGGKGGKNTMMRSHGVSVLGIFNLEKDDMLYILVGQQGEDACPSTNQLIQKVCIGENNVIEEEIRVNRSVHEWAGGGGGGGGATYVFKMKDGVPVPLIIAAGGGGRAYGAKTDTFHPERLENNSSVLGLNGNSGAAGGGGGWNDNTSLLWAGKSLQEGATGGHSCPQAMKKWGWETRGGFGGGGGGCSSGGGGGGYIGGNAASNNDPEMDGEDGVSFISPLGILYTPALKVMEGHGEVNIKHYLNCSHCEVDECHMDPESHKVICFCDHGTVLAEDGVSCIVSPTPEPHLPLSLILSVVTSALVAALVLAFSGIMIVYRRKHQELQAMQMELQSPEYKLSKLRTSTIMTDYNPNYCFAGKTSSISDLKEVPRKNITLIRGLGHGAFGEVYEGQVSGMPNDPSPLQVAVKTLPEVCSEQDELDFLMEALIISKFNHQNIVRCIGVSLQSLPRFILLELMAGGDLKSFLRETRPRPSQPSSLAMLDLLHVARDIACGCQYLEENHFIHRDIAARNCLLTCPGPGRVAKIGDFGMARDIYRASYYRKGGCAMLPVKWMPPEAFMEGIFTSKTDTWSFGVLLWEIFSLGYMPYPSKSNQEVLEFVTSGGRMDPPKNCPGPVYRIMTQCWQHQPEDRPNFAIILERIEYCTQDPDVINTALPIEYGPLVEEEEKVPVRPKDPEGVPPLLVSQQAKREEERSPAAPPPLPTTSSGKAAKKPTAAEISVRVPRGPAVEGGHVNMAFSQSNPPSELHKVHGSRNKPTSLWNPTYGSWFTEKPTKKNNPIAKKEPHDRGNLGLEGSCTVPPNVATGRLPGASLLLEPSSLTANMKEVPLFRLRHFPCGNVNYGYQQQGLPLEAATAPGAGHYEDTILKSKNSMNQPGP

CC(C)CCC(=O)[C@]1(O)C(O)=C(C(=O)C(C)C)C(=O)[C@H]1CCC(C)C [TH2, tetrahydroiso-cohumulone]
kinase inhibition (Src(1-530)(h); 1 μg/ml): 103% of control | kinase inhibition (Src(1-530)(h); 5 μg/ml): 105% of control | kinase inhibition (Src(1-530)(h); 25 μg/ml): 105% of control | kinase inhibition (Src(1-530)(h); 50 μg/ml): 102% of control | kinase inhibition (Src(1-530)(h); 100 μg/ml): 75% of control | kinase inhibition (ALK(h); 1 μg/ml): 80% of control | kinase inhibition (ALK(h); 5 μg/ml): 59% of control | kinase inhibition (ALK(h); 25 μg/ml): 21% of control | kinase inhibition (ALK(h); 50 μg/ml): 21% of control | kinase inhibition (ALK(h); 100 μg/ml): 23% of control | kinase inhibition (ARK5(h); 1 μg/ml): 103% of control | kinase inhibition (ARK5(h); 5 μg/ml): 104% of control | kinase inhibition (ARK5(h); 25 μg/ml): 99% of control | kinase inhibition (ARK5(h); 50 μg/ml): 77% of control | kinase inhibition (ARK5(h); 100 μg/ml): 74% of control | kinase inhibition (cKit(D816H)(h); 1 μg/ml): 123% of control | kinase inhibition (cKit(D816H)(h); 5 μg/ml): 116% of control | kinase inhibition (cKit(D816H)(h); 25 μg/ml): 104% of control | kinase inhibition (cKit(D816H)(h); 50 μg/ml): 114% of control | kinase inhibition (cKit(D816H)(h); 100 μg/ml): 108% of control | kinase inhibition (Itk(h); 1 μg/ml): 101% of control | kinase inhibition (Itk(h); 5 μg/ml): 103% of control | kinase inhibition (Itk(h); 25 μg/ml): 87% of control | kinase inhibition (Itk(h); 50 μg/ml): 82% of control | kinase inhibition (Itk(h); 100 μg/ml): 87% of control | kinase inhibition (Rsk4(h); 1 μg/ml): 79% of control | kinase inhibition (Rsk4(h); 5 μg/ml): 71% of control | kinase inhibition (Rsk4(h); 25 μg/ml): 47% of control | kinase inhibition (Rsk4(h); 50 μg/ml): 31% of control | kinase inhibition (Rsk4(h); 100 μg/ml): 17% of control | kinase inhibition (ACK1(h); 1 μg/ml): 117% of control | kinase inhibition (ACK1(h); 5 μg/ml): 124% of control | kinase inhibition (ACK1(h); 25 μg/ml): 97% of control | kinase inhibition (ACK1(h); 50 μg/ml): 86% of control | kinase inhibition (ACK1(h); 100 μg/ml): 81% of control | kinase inhibition (PKBβ(h); 1 μg/ml): 104% of control | kinase inhibition (PKBβ(h); 5 μg/ml): 97% of control | kinase inhibition (PKBβ(h); 25 μg/ml): 68% of control | kinase inhibition (PKBβ(h); 50 μg/ml): 43% of control | kinase inhibition (PKBβ(h); 100 μg/ml): 31% of control | kinase inhibition (DRAK1(h); 1 μg/ml): 103% of control | kinase inhibition (DRAK1(h); 5 μg/ml): 106% of control | kinase inhibition (DRAK1(h); 25 μg/ml): 107% of control | kinase inhibition (DRAK1(h); 50 μg/ml): 93% of control | kinase inhibition (DRAK1(h); 100 μg/ml): 79% of control | kinase inhibition (CDK5/p35(h); 1 μg/ml): 105% of control | kinase inhibition (CDK5/p35(h); 5 μg/ml): 98% of control | kinase inhibition (CDK5/p35(h); 25 μg/ml): 106% of control | kinase inhibition (CDK5/p35(h); 50 μg/ml): 80% of control | kinase inhibition (CDK5/p35(h); 100 μg/ml): 90% of control
